Earlier results in patent US20250049835A1, “COMPOSITIONS FOR ALTERING CYCLIC ADP-RIBOSE SECONDARY MESSENGER SIGNALLING” (Yeda Research and Development Co. Ltd., priority 2022, published 2025).

Target: T1, Bacillus cereus MSX-D12 ThsA enzyme (Bacillus cereus, UniProt J8G6Z1)
T1 construct: The reporter enzyme ThsA was expressed and purified as described previously; made in house
T1 sequence (J8G6Z1 1-476): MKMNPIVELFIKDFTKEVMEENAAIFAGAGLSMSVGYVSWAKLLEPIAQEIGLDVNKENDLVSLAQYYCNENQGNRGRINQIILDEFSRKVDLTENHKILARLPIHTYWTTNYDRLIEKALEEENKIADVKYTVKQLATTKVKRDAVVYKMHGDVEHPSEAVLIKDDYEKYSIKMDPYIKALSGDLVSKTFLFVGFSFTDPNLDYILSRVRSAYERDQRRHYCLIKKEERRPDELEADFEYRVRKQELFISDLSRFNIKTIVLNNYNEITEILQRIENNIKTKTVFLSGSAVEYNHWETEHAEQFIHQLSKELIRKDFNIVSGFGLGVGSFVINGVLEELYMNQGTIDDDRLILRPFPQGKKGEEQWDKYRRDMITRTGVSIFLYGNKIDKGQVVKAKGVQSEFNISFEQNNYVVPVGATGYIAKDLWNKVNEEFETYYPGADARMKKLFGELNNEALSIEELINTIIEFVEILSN
Conditions: previously shown

Nc1ncnc2c1ncn2[C@@H]1O[C@@H]2COP(=O)(O)OP(=O)(O)OC[C@H]3O[C@@H](OC1C2O)C(O)C3O (stereo partly shown) [1′-2′ gcADPR]
Activation of ThsA by cADPR isomer produced by plant TIR proteins: can activate the Theoris effector ThsA
